Laboratory results published in patent US11654196B2, “Dosing regimens for echinocandin class compounds” (priority 2012, dated 2023).

Columns and labels:
[1] = Pharmacokinetics following intravenous administration in beagle dogs; type: in vivo; conditions: 1.4 mg/kg IV slow bolus
Protocol: Echinocandin class compounds were administered to beagle dogs weighing approximately 6-10 kg. Each compound was dosed at 1.4 mg/kg in aqueous saline (with or without 0.5% Tween) over course of 1-10 minutes. […] The dogs were fasted at least 12 hours prior to each dosing and offered food after the 4-hour blood sample was taken; water was withheld for 1 hour prior to and 4 hours following each dosing event. The dose for each animal was based on its most recent body weight. The test article was injected intravenously via a catheter placed in the cephalic vein as a slow bolus.
Blood was collected via the jugular vein. All blood samples (1 mL each) were collected into K3EDTA tubes. Following blood collection, the samples were immediately inverted several times and were held on wet ice pending centrifugation. The samples were centrifuged within 30 minutes of collection under refrigeration (˜5° C. for 10 minutes at 2000 g) to obtain plasma. The plasma was frozen immediately on dry ice after separation. The plasma samples were stored at approximately ˜70° C. until analysis.
Plasma (100 μL) was precipitated with 400 μL of 0.1% formic acid in acetonitrile containing the internal standard (100 ng/mL pneumocandin). The samples were then capped and vortexed for about 30 seconds followed by centrifugation at 14,000 rpm at room temperature for 10 minutes. Following centrifugation 200 μL of supernatant was transferred to plastic autosampler vials containing 200 μL of 0.1% formic acid in water and vortexed. Samples were then analyzed by LCMSMS.
All pharmacokinetic calculations were performed using WinNonlin version 4.1 (Pharsight Corp) by noncompartmental analysis.

[2] = Pharmacokinetics (oral bioavailability) following oral administration in beagle dogs; type: in vivo; set-up: key to Improvement (ratio of % oral bioavailability to saline): NI = no improvement in oral bioavailability in comparison to saline; conditions: for % BA / Improvement (ratio of % oral bioavailability to saline): oral
Protocol: Echinocandin class compounds were administered to beagle dogs weighing approximately 6-10 kg. Each animal received the appropriate prepared test article in a single oral capsule dose at a target dose level of about 7-10 mg/kg. Immediately after dosing, each animal was offered 20 mL-30 mL of water orally (Groups 1-4) or 30 mL of water orally to assist in swallowing the capsule.
Animals were treated and blood samples were drawn and analyzed as provided in Example 1.
The bioavailability of each oral dose formulation was estimated by comparison to intravenous plasma concentration data in dogs from Example 1. The results provided in Table 3 show the oral bioavailability for the echinocandin class compound in saline (formulation 11), and the improvement over saline with the use of a formulation of the invention.

[3] = Solubility in aqueous media of varying pH; type: physicochemical; conditions: for solubility: ambient temperature, compound 22 as acetate salt, salt free equivalent
Stability in dog plasma = type: in vitro ADME; conditions: dog, plasma
Protocol: (§1) Stock solutions of compound 22 and anidulafungin were prepared in DMSO at a concentration of 1 mg/mL. Plasma samples were prepared by mixing plasma with 10% volume of 1 M sodium phosphate, pH 7.4, to minimize pH fluctuation, and stock solution to produce plasma samples containing approximately 10,000 ng/mL compound 22 or anidulafungin. For the stability experiments in PBS buffer, plasma was replaced with phosphate buffered saline, pH 7.4. The DMSO concentration was 1% in the final incubation. Multiple individual aliquots (0.5 mL each) were prepared, capped, and incubated at 37° C. At each stability time point, the reaction was stopped by removing the sample from the incubator and adding 0.5 mL of acetonitrile containing internal standard. Samples were centrifuged for approximately 5 minutes at 10000 rpm to precipitate the proteins. Stability was measured in five different matrices (i.e. rat plasma, dog plasma, monkey plasma, human plasma, and PBS). An aliquot (100 μL) of supernatant of each sample was assayed by HPLC. The percentage of anidulafungin and compound 22 remaining at each time point was calculated by dividing the peak area ratio at each time point by the peak area ratio at time zero.

[4] = Stability in human plasma; type: in vitro ADME; conditions: human, plasma
Protocol: as §1

[5] = Stability in phosphate buffered saline (PBS); type: physicochemical; conditions: buffer, pH 7.4
Protocol: as §1

[6] = Pharmacokinetics in chimpanzee, IV dose; conditions: in vivo
Protocol: Pharmacokinetic studies were performed in six adult female chimpanzees. Two chimpanzees received 1-mg/kg IV dose of compound 22 formulated in 5% dextrose (60-minute infusion). Two chimpanzees received 10-mg/kg oral dose of compound 22 formulated in 5% citric acid (oral bolus). Two chimpanzees received 1-mg/kg IV dose of anidulafungin formulated as package label (5% dextrose, 60-minute infusion). Plasma samples were collected from all chimps for 10 days to 22 days. PK curves are depicted in FIGS. 16A, 16B, and 18. All pharmacokinetic calculations were performed using WinNonlin version 4.1 (Pharsight Corp) by noncompartmental analysis.

[7] = Circulating half-life in rat; type: in vivo; conditions: assays conducted by applicant
[8] = Circulating half-life in dog; type: in vivo; conditions: assays conducted by applicant
[9] = Circulating half-life in monkey; type: in vivo; conditions: assays conducted by applicant
[10] = Circulating half-life in chimpanzee; type: in vivo; conditions: assays conducted by applicant

CC(=O)[O-].CCCCCOc1ccc(-c2ccc(-c3ccc(C(=O)NC4CC(O)C(OCC[N+](C)(C)C)NC(=O)C5C(O)C(C)CN5C(=O)C(C(C)O)NC(=O)C(C(O)C(O)c5ccc(O)cc5)NC(=O)C5CC(O)CN5C(=O)C(C(C)O)NC4=O)cc3)cc2)cc1 (centres unmarked) [Compound 22] showed an AUC [1] of 48700 ng·h/mL, a Cmax [1] of 1570 ng/mL and a Mean clearance [1] of 18.1 mL/h/kg. For the same compound, the T1/2 [1] was 53.1 h, the “Volume of Distribution” value [1] was 1.36 L/kg and the “% BA in saline” value ([2]; oral about 7-10 mg/kg, formulation 11 (saline)) was 3.50%. The “% BA” value ([2]; formulation 1) was “(8.21%)”, the “Improvement (ratio of % oral bioavailability to saline)” value ([2]; formulation 1) was 2.3 and the “% BA” value ([2]; formulation 3) was “(9.76%)”. The “Improvement (ratio of % oral bioavailability to saline)” value ([2]; formulation 3) was 2.8, the “% BA” value ([2]; formulation 5) was “(12.3%)” and the “Improvement (ratio of % oral bioavailability to saline)” value ([2]; formulation 5) was 3.5. For the same compound, the “% BA” value ([2]; formulation 7) was “(12.2%)”, the “Improvement (ratio of % oral bioavailability to saline)” value ([2]; formulation 7) was 3.5 and the “Improvement (ratio of % oral bioavailability to saline)” value ([2]; formulation 8) was “NI”. The “Improvement (ratio of % oral bioavailability to saline)” value ([2]; formulation 9) was “NI”, the “Improvement (ratio of % oral bioavailability to saline)” value ([2]; formulation 10) was “NI” and the “Improvement (ratio of % oral bioavailability to saline)” value ([2]; formulation 12) was “NI”. The “% BA” value ([2]; formulation 13) was “(8.80%)”, the “Improvement (ratio of % oral bioavailability to saline)” value ([2]; formulation 13) was 2.5 and the “% BA” value ([2]; formulation 14) was “(15.0%)”. The “Improvement (ratio of % oral bioavailability to saline)” value ([2]; formulation 14) was 4.3, the “% BA” value ([2]; formulation 15) was “(13.4%)” and the “Improvement (ratio of % oral bioavailability to saline)” value ([2]; formulation 15) was 3.8. The “% BA” value ([2]; formulation 16) was “(5.50%)”, the “Improvement (ratio of % oral bioavailability to saline)” value ([2]; formulation 16) was 1.5 and the “% BA” value ([2]; formulation 17) was “(11.8%)”. For the same compound, the “Improvement (ratio of % oral bioavailability to saline)” value ([2]; formulation 17) was 3.3, the solubility ([3]; 90% Water:10% glycerol) was >102.3 mg/mL and the solubility ([3]; Acetate buffer (0.01M, pH 4.5)) was >145 mg/mL. The solubility ([3]; Acetate buffer (0.01M, pH 5.5)) was >141 mg/mL, the solubility ([3]; Sterile Water for injection) was >142 mg/mL and the solubility ([3]; Tris buffer (0.01M, pH 8.5)) was >138 mg/mL. The “Aqueous solubility compared with anidulafungin” value ([3]; variety of aqueous mediums) was “dramatically greater aqueous solubility than anidulafungin”, the “% remaining” value (Stability in dog plasma; 0 h) was 100% and the “% remaining” value (Stability in dog plasma; 1 h) was 97.9%. The “% remaining” value (Stability in dog plasma; 2 h) was 107%, the “% remaining” value (Stability in dog plasma; 4 h) was 119% and the “% remaining” value (Stability in dog plasma; 8 h) was 94.0%. For the same compound, the “% remaining” value (Stability in dog plasma; 21 h) was 87.3%, the “% remaining” value (Stability in dog plasma; 44 h) was 78.6% and the “% remaining” value ([4]; 0 h) was 100%. The “% remaining” value ([4]; 1 h) was 98.5%, the “% remaining” value ([4]; 2 h) was 101% and the “% remaining” value ([4]; 4 h) was 125%. For the same compound, the “% remaining” value ([4]; 8 h) was 97.5%, the “% remaining” value ([4]; 21 h) was 95.7% and the “% remaining” value ([4]; 44 h) was 93.3%. For the same compound, the “% remaining” value ([5]; 0 h) was 100%, the “% remaining” value ([5]; 1 h) was 105% and the “% remaining” value ([5]; 2 h) was 103%. The “% remaining” value ([5]; 4 h) was 107%, the “% remaining” value ([5]; 8 h) was 101% and the “% remaining” value ([5]; 21 h) was 96.3%. The “% remaining” value ([5]; 44 h) was 96.1%, the “Clearance used to calculate human circulating concentrations” value ([6]; human) was 3.4 mL/h/kg and the “Plasma half life used to calculate human circulating concentrations” value ([6]; human) was 80 h. For the same compound, the “Clearance compared with anidulafungin” value [6] was “lower clearance”, the “Half-life compared with anidulafungin” value [6] was “longer half-life” and the “Plasma half-life (IV)” value ([6]; iv) was 81 h. The clearance ([6]; iv) was 3.4 mL/h/kg, the Half-life [7] was 30 h and the Half-life [8] was 53 h. The Half-life [9] was 40 h and the Half-life [10] was 81 h.
